Patent US20120028887A1, “L[…] HIV-1” (priority 2009, published 2012)
Residues, ends and D or L forms follow the SMILES beside them. No end group written: not given here. *: point of attachment. Palmitoyl = CCCCCCCCCCCCCCCC(=O)*; C16 = C16 lipid

Key:
[1] = test system: Jurkat E6-1 cells and Jurkat HXBc2 cells expressing HIV-1 HXBc2 Rev and ENV proteins; assay type: cell-based; settings: for IC50: read-out: IC50 in cell-cell fusion inhibition assay; for IC50 (nM) In cell-cell fusion assay: Table 4
Description: Jurkat E6-1 cells were from Dr. Arthur Weiss (Weiss A et al. 1984, J. Immunol. 133; 123-8), and Jurkat HXBc2 (4) cells expressing HIV-1 HXBc2 Rev and ENV proteins were from Dr. Joseph Sodroski (Cao, J. et al. 1996, J. Virol. 70; 1340-54). Cells were cultured every 3 to 4 days, and maintained in RPMI-1640 supplemented with the appropriate antibiotics at 37° C. with 5% CO2 in a humidified incubator. For ENV expression, Jurkat HXBc2 (4) cells were transferred to medium without tetracycline three days prior to the experiments. […] Cell-Cell Fusion Inhibition Assay—The protocol utilizing Jurkat E6-1 and Jurkat HXBc2 cells for a cell-cell fusion assay was previously described (Huerta L. et al. 2002, Cytometry, 47; 100-6. In short, Jurkat E6-1 and Jurkat HXBc2 cells were labeled with DiI and DiD lypophilic fluorescent probes, respectively. The two cell populations were co-incubated for 6 h in a ratio of 1:1 in the presence of different concentrations of the inhibitory peptides. Cells that co-incubated without the presence of peptides served as an optimal fusion reference. Unlabeled cells that were handled similarly served as an intrinsic fluorescence control. Cells labeled separately with DiI or DiD were used to compensate for the optimal separation of fluorescent signals. Jurkat HXBc2 cells labeled with DiI were co-incubated with Jurkat HXBc2 cells labeled with DiD for a fusion background that was subtracted from the measurements of the experiment. The following alterations were applied to the original protocol: (i) 5 ul of a 1 mg/ml DiI or DiD solution in dimethylsulfoxide (DMSO) was added to 1 ml of 5×10^6 cells/ml Jurkat E6-1 or Jurkat HXBc2 cells, respectively. (ii) Data from 150,000 events for each sample were collected on FACSort, upgraded to a FACSCalibur cell analyzer (Becton Dickinson), and further analyzed. Fitting of the data points was performed according to the equation derived from Hills' equation:

[2] = test system: HIV-1 HXB2; assay type: cell-based; settings: Table 5
Description: For the fitting, we uploaded the X and Y values of the raw data (after subtracting the background) into a nonlinear least squares regression (curve fitter) program that provided the IC50 value (A of the equation), as well as the c value. Virus Infectivity Assay—Fully infectious HIV-1 HXB2 concentrated virus stock was a kind gift of the AIDS Vaccine Program, SAIC. Experiments were done according to a P3 biological safety level. The infectivity of HIV-1 HXB2 was determined using the TZM-bl cell line as a reporter. Cells were added (2×10^4 cells/well) to a 96-well clear-bottomed microtiter plate with 10% serum supplemented Dulbecco's modified eagle medium (DMEM). Plates were incubated at 37° C. for 18-24 hours to allow the cells to adhere. The media was then aspirated from each well and replaced with serum free DMEM containing 40 micrograms/mL DEAE-dextran. […] Luciferase activity was analyzed using the Steady-Glo Luciferase assay kit (Promega, Madison Wis.). […] IC50 Values were calculated from the fitted curve similarly to the cell-cell fusion assay. […] The eight different possible combinations (triple, NBD, DiI, DiD, NBD+DiI, NBD+DiD, DiI+DiD, no label) were defined in the analysis software and the percentage of each one was calculated. The percentage of NBD labeling (peptide) on all cell types in relation to all available labeled cells in the system was calculated. […]

[3] = test system: HIV-1LAI; settings: blocked infection of target cells; cited from earlier work

Compound: CCCCCCCCCCCCCCCC(=O)N[C@@H](CO)C(=O)NCC(=O)N[C@H](C(=O)N[C@@H](CC(=O)O)C(=O)N[C@@H](CCC(N)=O)C(=O)N[C@@H](CCC(=O)O)C(=O)N[C@@H](CCC(N)=O)C(=O)N[C@@H](CC(N)=O)C(=O)N[C@@H](CC(N)=O)C(=O)N[C@@H](CC(C)C)C(=O)N[C@H](C(=O)N[C@@H](CCCNC(=N)N)C(=O)N[C@@H](CC(C)C)C(=O)N[C@H](C(=O)N[C@@H](CCC(=O)O)C(=O)N[C@@H](C)C(=O)N[C@@H](CCC(N)=O)C(=O)N[C@H](C(=O)N[C@@H](Cc1c[nH]cn1)C(=O)N[C@@H](CCC(=O)O)C(=O)N[C@@H](CC(C)C)C(=O)N[C@@H](CCC(N)=O)C(=O)N[C@@H](CC(C)C)C(=O)N[C@H](C(=O)N[C@@H](CCC(N)=O)C(=O)N[C@@H](Cc1c[nH]c2ccccc12)C(=O)N[C@@H](CCCCN)C(=O)N[C@H](C(=O)N[C@@H](CCCCN)C(=O)N[C@@H](CCC(N)=O)C(=O)N[C@@H](CC(C)C)C(=O)N[C@@H](CC(C)C)C(=O)N[C@@H](C)C(=O)N[C@@H](CCCNC(=N)N)C(=O)N[C@H](C(=O)N[C@@H](CC(C)C)C(=O)N[C@@H](CCCCN)C(N)=O)[C@@H](C)CC)[C@@H](C)CC)[C@@H](C)O)[C@@H](C)CC)[C@@H](C)CC)[C@@H](C)O)[C@@H](C)CC [C16-N36 MUTe,g] (Palmitoyl-SGIDQEQNNLTRLIEAQIHELQLTQWKIKQLLARILK-NH2)
- IC50 [1]: 162 ± 4 nM

Compound: CC[C@H](C)[C@H](NC(=O)CNC(=O)[C@@H](N)CO)C(=O)N[C@@H](CC(=O)O)C(=O)N[C@@H](CCC(N)=O)C(=O)N[C@@H](CCC(=O)O)C(=O)N[C@@H](CCC(N)=O)C(=O)N[C@@H](CC(N)=O)C(=O)N[C@@H](CC(N)=O)C(=O)N[C@@H](CC(C)C)C(=O)N[C@H](C(=O)N[C@@H](CCCNC(=N)N)C(=O)N[C@@H](CC(C)C)C(=O)N[C@H](C(=O)N[C@@H](CCC(=O)O)C(=O)N[C@@H](C)C(=O)N[C@@H](CCC(N)=O)C(=O)N[C@H](C(=O)N[C@@H](Cc1c[nH]cn1)C(=O)N[C@@H](CCC(=O)O)C(=O)N[C@@H](CC(C)C)C(=O)N[C@@H](CCC(N)=O)C(=O)N[C@@H](CC(C)C)C(=O)N[C@H](C(=O)N[C@@H](CCC(N)=O)C(=O)N[C@@H](Cc1c[nH]c2ccccc12)C(=O)N[C@@H](CCCCN)C(=O)N[C@H](C(=O)N[C@@H](CCCCN)C(=O)N[C@@H](CCC(N)=O)C(=O)N[C@@H](CC(C)C)C(=O)N[C@@H](CC(C)C)C(=O)N[C@@H](C)C(=O)N[C@@H](CCCNC(=N)N)C(=O)N[C@H](C(=O)N[C@@H](CC(C)C)C(=O)N[C@@H](CCCCN)C(N)=O)[C@@H](C)CC)[C@@H](C)CC)[C@@H](C)O)[C@@H](C)CC)[C@@H](C)CC)[C@@H](C)O [N36 MUTe,g, reference compound] (H-SGIDQEQNNLTRLIEAQIHELQLTQWKIKQLLARILK-NH2; N-terminus assumed)
- IC50 [1]: 936 ± 36 nM

Compound: CCCCCCCCCCCCCCCC(=O)NCCCC[C@H](NC(=O)[C@H](CC(C)C)NC(=O)[C@@H](NC(=O)[C@H](CCCNC(=N)N)NC(=O)[C@H](C)NC(=O)[C@H](CC(C)C)NC(=O)[C@H](CC(C)C)NC(=O)[C@H](CCC(N)=O)NC(=O)[C@H](CCCCN)NC(=O)[C@@H](NC(=O)[C@H](CCCCN)NC(=O)[C@H](Cc1c[nH]c2ccccc12)NC(=O)[C@H](CCC(N)=O)NC(=O)[C@@H](NC(=O)[C@H](CC(C)C)NC(=O)[C@H](CCC(N)=O)NC(=O)[C@H](CC(C)C)NC(=O)[C@H](CCC(=O)O)NC(=O)[C@H](Cc1c[nH]cn1)NC(=O)[C@@H](NC(=O)[C@H](CCC(N)=O)NC(=O)[C@H](C)NC(=O)[C@H](CCC(=O)O)NC(=O)[C@@H](NC(=O)[C@H](CC(C)C)NC(=O)[C@H](CCCNC(=N)N)NC(=O)[C@@H](NC(=O)[C@H](CC(C)C)NC(=O)[C@H](CC(N)=O)NC(=O)[C@H](CC(N)=O)NC(=O)[C@H](CCC(N)=O)NC(=O)[C@H](CCC(=O)O)NC(=O)[C@H](CCC(N)=O)NC(=O)[C@H](CC(=O)O)NC(=O)[C@@H](NC(=O)CNC(=O)[C@@H](N)CO)[C@@H](C)CC)[C@@H](C)O)[C@@H](C)CC)[C@@H](C)CC)[C@@H](C)O)[C@@H](C)CC)[C@@H](C)CC)C(N)=O [N36 MUTe,g-C16] (H-SGIDQEQNNLTRLIEAQIHELQLTQWKIKQLLARILK(Palmitoyl)-NH2)
- IC50 [1]: 8.8 ± 4 nM

Compound: CCCCCCCCCCCCCCCC(=O)NCCCC[C@H](NC(=O)[C@H](CCC(N)=O)NC(=O)[C@H](CC(C)C)NC(=O)[C@H](CCC(=O)O)NC(=O)[C@H](Cc1c[nH]cn1)NC(=O)[C@@H](NC(=O)[C@H](CCC(N)=O)NC(=O)[C@H](C)NC(=O)[C@H](CCC(=O)O)NC(=O)[C@@H](NC(=O)[C@H](CC(C)C)NC(=O)[C@H](CCCNC(=N)N)NC(=O)[C@@H](NC(=O)[C@H](CC(C)C)NC(=O)[C@H](CC(N)=O)NC(=O)[C@H](CC(N)=O)NC(=O)[C@H](CCC(N)=O)NC(=O)[C@H](CCC(=O)O)NC(=O)[C@H](CCC(N)=O)NC(=O)[C@H](CC(=O)O)NC(=O)[C@@H](NC(=O)CNC(=O)[C@H](CO)NC(=O)[C@H](CC(C)C)NC(=O)[C@H](CC(C)C)NC(=O)[C@H](CCC(N)=O)NC(=O)[C@@H](N)CCCNC(=N)N)[C@@H](C)CC)[C@@H](C)O)[C@@H](C)CC)[C@@H](C)CC)C(N)=O [Sh-RQLL-Mut e,g-C16] (H-RQLLSGIDQEQNNLTRLIEAQIHELQK(Palmitoyl)-NH2; N-terminus assumed)
- IC50 (nM) In cell-cell fusion assay [1]: Not active

Compound: C16-HQTLSGIDQEQNNLTRLIEAQIHELQ (C16-HQTLSGIDQEQNNLTRLIEAQIHELQ-NH2) [C16-Sh-Mut e,g]
- IC50 (nM) In cell-cell fusion assay [1]: Not active
- IC50 ([2]; read-out: IC50 (nM) In virus-cell fusion assay): 643 ± 137 nM

Compound: C16-RQLLSGIDQEQNNLTRLIEAQIHELQ (C16-RQLLSGIDQEQNNLTRLIEAQIHELQ-NH2) [C16-Sh-RQLL-Mut e,g]
- IC50 (nM) In cell-cell fusion assay [1]: Not active

Compound: HQTLSGIDQEQNNLTRLIEAQIHELQ [Sh-Mut e,g]
- IC50 (nM) In cell-cell fusion assay [1]: Not active
- IC50 (nM) In virus-cell fusion assay [2]: Not active

Compound: HQTLSGIDQEQNNLTRLIEAQIHELQ-C16 [Sh-Mut e,g-C16]
- IC50 (nM) In cell-cell fusion assay [1]: Not active

Compound: RQLLSGIDQEQNNLTRLIEAQIHELQ [Sh-RQLL-Mut e,g]
- IC50 (nM) In cell-cell fusion assay [1]: Not active

Compound: SGIVQQLNNQLRAEEANQHLEQLSVWGSKQNQARRLK(δ-NH) [N36 MUTa,d, reference compound]
- IC50 in cell-cell fusion inhibition assay [1]: inactive
- IC50 nM ([1]; cell-cell fusion assay, Table 3, N36 mutated peptides): Not active

Compound: enfuvirtide
- EC50 against HIV-1LAI [3]: 0.5 ng/mL
